The subject of one experiment is dendritic cells. Description: Dendritic cell activation and CD8+ T cell recruitment in mLN and lungs. The experiment is classed as in vivo, BALB/c mice. The following applies: day 7. How it is done: FIGS. 25A-25F. Innate immune cells, NK cells and dendritic cells are activated following 1V270 therapy and contribute to anti-metastatic effects (A-C) Systemic administration of 1V270 activates dendritic cells and increases CD8^+ cell recruitment in the lung draini lymph node. (A) BALB/c mice (n=S/group) were treated with 1V270 on day −1 and then tumor cells were i.v. administered on day 0. Seven days later, mediastinal lymph node (mLN) cells were stained for dendritic cells (DC; CD45^+CD11c^+MHC classll^+). (B) DCs were further stained for CD80 and CD86. (C) The mLN cells were also stained for central memory CD8^+ T cells (CD3+CD8^+CD44^+CD62L^+), effector memory CD8^+ T cells (CD3+CD8^+CD44^+CD62L^+), and naive CD8^+ T cells (CD3+CD8^+CD44^−CD62L^−). Each dot indicates an individual mouse and horizontal and vertical bars indicate means±SEM. Data are representative of 3 independent experiments showing similar results. *P<0.05, **P<0.01 by Mann-Whitney U test comparing the individual groups. (D-F) In vivo imaging analyses using GLF•expressing 4T1 cells (4T1-GLF). (D) BALB/c mice (n=14-15/group) were i.p, administered with 200 μg 1V270 or vehicle. Next day, 2×10^4 4T1-GLF cells were i.v. injected through the tail vein. Tumor signals were quantified by IVIS. Data (mean±SEM) were pooled from 3 independent experiments showing similar results. *P<0.05, **P<0.01 by two-way ANOVA using a Bonferroni post hoc test comparing treatment groups against the vehicle group. […] (E,F) NK cells recruited by 1V270 therapy prevent colonization of 4T1 cells. (E) BALB/c mice (n=G−7/group) were treated with 1V270 (200 μg/injection) on day −1 and then tumor cells were i.v. administered on day 0. On the next day, lung cells were stained for NK markers (CD45^+[…] NKp46^+CD49^+) and analyzed by flow cytometry. […] Tumor signals were analyzed as described above. […]
Since the 1V270 therapy induced a tumor-specific CD8^+ T cell response in the 4T1 model, we evaluated whether the therapy activated APCs in the lungs, and/or in the draining lymph nodes. […]

Another experiment relates to NK cells and MDSC. Description: Innate immune cell recruitment to the lungs (flow cytometry). The following applies: 1V270 day -1; vs vehicle. Type of experiment: in vivo, BALB/c mice. On the procedure: FIGS. 25A-25F. Innate immune cells, NK cells and dendritic cells are activated following 1V270 therapy and contribute to anti-metastatic effects (A-C) Systemic administration of 1V270 activates dendritic cells and increases CD8^+ cell recruitment in the lung draini lymph node. (A) BALB/c mice (n=S/group) were treated with 1V270 on day −1 and then tumor cells were i.v. administered on day 0. Seven days later, mediastinal lymph node (mLN) cells were stained for dendritic cells (DC; CD45^+CD11c^+MHC classll^+). (B) DCs were further stained for CD80 and CD86. (C) The mLN cells were also stained for central memory CD8^+ T cells (CD3+CD8^+CD44^+CD62L^+), effector memory CD8^+ T cells (CD3+CD8^+CD44^+CD62L^+), and naive CD8^+ T cells (CD3+CD8^+CD44^−CD62L^−). Each dot indicates an individual mouse and horizontal and vertical bars indicate means±SEM. […] Tumor signals were quantified by IVIS. […] On the next day, lung cells were stained for NK markers (CD45^+[…] NKp46^+CD49^+) and analyzed by flow cytometry. […] Tumor signals were analyzed as described above. […]
FIGS. 33A-33C. […] Next day, single cell suspensions derived from the lungs were stained for (A) NK cells (CD45^+CD3^−NKp46^+CD49^+), (B) M-MDSCs (CD45^+CD11b^+Ly6G^−Ly6^high) and (C) PMN-MDSCs (CD45^+CD11b^+Ly6G^+) were analyzed by flow cytometric assay. […]

For the compound `CCCCCCCCC=CCCCCCCCC(=O)OCC(COP(=O)(O)OCCNC(=O)c1ccc(Cn2c(=O)[nH]c3c(N)nc(OCCOC)nc32)cc1)OC(=O)CCCCCCCC=CCCCCCCCC` (centres unmarked) [1V270], the “frequencies of cells expressing co-stimulatory molecules (CD80 or CD86)” value with dendritic cells (1V270 i.p. day -1) was “significantly increased”. Besides, the “recruitment of CD8+ T cells (central memory, effector memory, naive)” value with dendritic cells (mLN) is “recruitment of CD8^+ T cells with memory and nalve phenotypes”. The “population of CD11c+ dendritic cells” value in the experiment on dendritic cells (mLNs and lungs, 1V270 i.p. day -1) was “increased in both mLNs and the lungs”. Also, in the experiment with NK cells and MDSC, the “population of NK cells recruited to the lungs” value is “Significantly increased populations” and the “population of monocytic-MDSC recruited to the lungs” value is “Significantly increased populations”.

(Values after patent publication US20200087625A1, “METHODS FOR ISOLATING, EXPANDING AND ADMINISTERING CANCER SPECIFIC CD8+ T CELLS” (priority 2017, published 2020).)
